Assay results: patent publication US10131652B2, “Pyrimidinyloxy benzene derivatives as herbicides” (E. I. DU PONT DE NEMOURS AND COMPANY, priority 2014, dated 2018)
Like-named read-outs stand apart in the source and are kept apart here.

Key:
Assay type in all cases: in vivo
[1] = tested on: Italian ryegrass (Lolium multiflorum); assay: Test D pre-/postemergence plant response; conditions: Lolium multiflorum; for pest or weed control at 8 g/ha: 8 g ai/ha; for pest or weed control at 16 g/ha: 16 g ai/ha; for pest or weed control at 31 g/ha: 31 g ai/ha; for pest or weed control at 62 g/ha: 62 g ai/ha
In short: (§1)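 0 = no effect, 100 = complete control: plants were scored this way by visual comparison with controls 13 to 15 days post-treatment. Application was preemergence to sown loam/sand pots or postemergence to 2–18 cm seedlings in peat-based mix.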

corn (Zea mays) = assay: Test D pre-/postemergence plant response; conditions: Zea mays; for Corn plant response rating (crop injury, 0 = no effect, 100 = complete kill) at 62 g/ha: 62 g ai/ha
In short: as §1

[2] = tested on: winter wheat (Triticum aestivum); assay: Test D pre-/postemergence plant response; conditions: Triticum aestivum; for plant injury at 8 g/ha: 8 g ai/ha; for plant injury at 16 g/ha: 16 g ai/ha; for plant injury at 31 g/ha: 31 g ai/ha; for plant injury at 62 g/ha: 62 g ai/ha
In short: as §1

[3] = tested on: velvetleaf (Abutilon theophrasti); assay: Test D pre-/postemergence plant response; conditions: Abutilon theophrasti; for pest or weed control at 8 g/ha: 8 g ai/ha; for pest or weed control at 16 g/ha: 16 g ai/ha; for pest or weed control at 31 g/ha: 31 g ai/ha; for pest or weed control at 62 g/ha: 62 g ai/ha
In short: as §1

[4] = tested on: oilseed rape (Brassica napus); assay: Test D pre-/postemergence plant response; conditions: Brassica napus; for plant injury at 8 g/ha: 8 g ai/ha; for plant injury at 16 g/ha: 16 g ai/ha; for plant injury at 31 g/ha: 31 g ai/ha; for plant injury at 62 g/ha: 62 g ai/ha
In short: as §1

[5] = tested on: lambsquarters (Chenopodium album); assay: Test D pre-/postemergence plant response; conditions: Chenopodium album; for pest or weed control at 8 g/ha: 8 g ai/ha; for pest or weed control at 16 g/ha: 16 g ai/ha; for pest or weed control at 31 g/ha: 31 g ai/ha; for pest or weed control at 62 g/ha: 62 g ai/ha
In short: as §1

[6] = tested on: galium (catchweed bedstraw, Galium aparine); assay: Test D pre-/postemergence plant response; conditions: Galium; for pest or weed control at 8 g/ha: 8 g ai/ha; for pest or weed control at 16 g/ha: 16 g ai/ha; for pest or weed control at 31 g/ha: 31 g ai/ha; for pest or weed control at 62 g/ha: 62 g ai/ha
In short: as §1

[7] = tested on: ducksalad (Heteranthera limosa); assay: Test C flooded paddy test plant response; conditions: Heteranthera limosa; Flood, 250 g ai/ha; scale of 0 to 100 where 0 is no effect and 100 is complete control; 13 to 15 days; read-out: Ducksalad plant response rating
In short: (§2)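 Scored visually on a 0–100 scale (100 = complete control) against untreated plants 13 to 15 days after treatment in the greenhouse. Compounds went into paddy water of pots flooded to 3 cm, holding 2-leaf-stage plants.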

[8] = tested on: small-flower umbrella sedge (Cyperus difformis); assay: Test C flooded paddy test plant response; conditions: Cyperus difformis; Flood, 250 g ai/ha; scale of 0 to 100 where 0 is no effect and 100 is complete control; 13 to 15 days; read-out: Sedge, Umbrella plant response rating
In short: as §2

[9] = tested on: barnyardgrass (Echinochloa crus-galli); assay: Test C flooded paddy test plant response; conditions: Echinochloa crus-galli; Flood, 250 g ai/ha; scale of 0 to 100 where 0 is no effect and 100 is complete control; 13 to 15 days; read-out: Barnyardgrass plant response rating
In short: as §2

rice (Oryza sativa) = assay: Test C flooded paddy test plant response; conditions: Oryza sativa; Flood, 250 g ai/ha; scale of 0 to 100 where 0 is no effect and 100 is complete control; 13 to 15 days; read-out: Rice plant response rating
In short: as §2

[10] = post-emergence, Postemergence, scale 0 to 100 (0 no effect, 100 complete control), read-out: Ryegrass, Italian plant response rating
[11] = pre-emergence, Preemergence, scale 0 to 100 (0 no effect, 100 complete control), read-out: Plant response rating, Ryegrass, Italian
[12] = post-emergence, Postemergence, scale 0 to 100 (0 no effect, 100 complete control), read-out: Wheat plant response rating
[13] = pre-emergence, Preemergence, scale 0 to 100 (0 no effect, 100 complete control), read-out: Plant response rating, Wheat
[14] = post-emergence, Postemergence, scale 0 to 100 (0 no effect, 100 complete control), read-out: Velvetleaf plant response rating
[15] = pre-emergence, Preemergence, scale 0 to 100 (0 no effect, 100 complete control), read-out: Plant response rating, Velvetleaf
[16] = post-emergence, Postemergence, scale 0 to 100 (0 no effect, 100 complete control), read-out: Oilseed Rape plant response rating
[17] = pre-emergence, Preemergence, scale 0 to 100 (0 no effect, 100 complete control), read-out: Plant response rating, Oilseed Rape
[18] = post-emergence, Postemergence, scale 0 to 100 (0 no effect, 100 complete control), read-out: Lambsquarters plant response rating
[19] = pre-emergence, Preemergence, scale 0 to 100 (0 no effect, 100 complete control), read-out: Plant response rating, Lambsquarters
[20] = post-emergence, Postemergence, scale 0 to 100 (0 no effect, 100 complete control), read-out: Galium plant response rating
[21] = pre-emergence, Preemergence, scale 0 to 100 (0 no effect, 100 complete control), read-out: Plant response rating, Galium

Structure (SMILES): FC(F)c1cc(-c2ccccc2Oc2ncc(Cl)cn2)no1 [Compound 35, 5-chloro-2-[2-[5-(difluoromethyl)-3-isoxazolyl]phenoxy]pyrimidine]
- pest or weed control at 8 g/ha ([1]; post-emergence, Postemergence, read-out: Plant response rating (scale 0 to 100), Ryegrass, Italian): 0%
- pest or weed control at 16 g/ha [1, 10]: 0%
- pest or weed control at 31 g/ha [1, 10]: 5%
- pest or weed control at 62 g/ha ([1]; post-emergence, Postemergence, scale 0 to 100, 0 no effect, 100 complete control, read-out: Plant response rating, Ryegrass, Italian): 20%
- pest or weed control at 8 g/ha [1, 11]: 0%
- pest or weed control at 16 g/ha [1, 11]: 0%
- pest or weed control at 31 g/ha [1, 11]: 30%
- pest or weed control at 62 g/ha [1, 11]: 80%
- plant injury at 8 g/ha (corn (Zea mays); post-emergence, Postemergence, 8 g ai/ha, read-out: Plant response rating (scale 0 to 100), Corn): 5%
- plant injury at 16 g/ha (corn (Zea mays); post-emergence, Postemergence, 16 g ai/ha, scale 0 to 100 (0 no effect, 100 complete control), read-out: Corn plant response rating): 5%
- plant injury at 31 g/ha (corn (Zea mays); post-emergence, Postemergence, 31 g ai/ha, scale 0 to 100 (0 no effect, 100 complete control), read-out: Corn plant response rating): 10%
- Corn plant response rating (crop injury, 0 = no effect, 100 = complete kill) at 62 g/ha (corn (Zea mays); post-emergence, Postemergence, scale 0 to 100, 0 no effect, 100 complete control): 20%
- Corn plant response rating (crop injury, 0 = no effect, 100 = complete kill) at 8 g/ha (corn (Zea mays); pre-emergence, Preemergence, 8 g ai/ha, scale 0 to 100 (0 no effect, 100 complete control)): 0%
- Corn plant response rating (crop injury, 0 = no effect, 100 = complete kill) at 16 g/ha (corn (Zea mays); pre-emergence, Preemergence, 16 g ai/ha, scale 0 to 100 (0 no effect, 100 complete control)): 0%
- Corn plant response rating (crop injury, 0 = no effect, 100 = complete kill) at 31 g/ha (corn (Zea mays); pre-emergence, Preemergence, 31 g ai/ha, scale 0 to 100 (0 no effect, 100 complete control)): 0%
- Corn plant response rating (crop injury, 0 = no effect, 100 = complete kill) at 62 g/ha (corn (Zea mays); pre-emergence, Preemergence, scale 0 to 100 (0 no effect, 100 complete control)): 15%
- plant injury at 8 g/ha ([2]; post-emergence, Postemergence, read-out: Plant response rating (scale 0 to 100), Wheat): 0%
- plant injury at 16 g/ha [2, 12]: 0%
- plant injury at 31 g/ha [2, 12]: 5%
- plant injury at 62 g/ha ([2]; post-emergence, Postemergence, scale 0 to 100, 0 no effect, 100 complete control, read-out: Plant response rating, Wheat): 10%
- plant injury at 8 g/ha [2, 13]: 0%
- plant injury at 16 g/ha [2, 13]: 0%
- plant injury at 31 g/ha [2, 13]: 5%
- plant injury at 62 g/ha [2, 13]: 15%
- pest or weed control at 8 g/ha ([3]; post-emergence, Postemergence, read-out: Plant response rating (scale 0 to 100), Velvetleaf): 30%
- pest or weed control at 16 g/ha [3, 14]: 50%
- pest or weed control at 31 g/ha [3, 14]: 55%
- pest or weed control at 62 g/ha ([3]; post-emergence, Postemergence, scale 0 to 100, 0 no effect, 100 complete control, read-out: Plant response rating, Velvetleaf): 65%
- pest or weed control at 8 g/ha [3, 15]: 65%
- pest or weed control at 16 g/ha [3, 15]: 85%
- pest or weed control at 31 g/ha [3, 15]: 85%
- pest or weed control at 62 g/ha [3, 15]: 100%
- plant injury at 8 g/ha ([4]; post-emergence, Postemergence, read-out: Plant response rating (scale 0 to 100), Oilseed Rape): 5%
- plant injury at 16 g/ha [4, 16]: 45%
- plant injury at 31 g/ha [4, 16]: 80%
- plant injury at 62 g/ha ([4]; post-emergence, Postemergence, scale 0 to 100, 0 no effect, 100 complete control, read-out: Plant response rating, Oilseed Rape): 98%
- plant injury at 8 g/ha [4, 17]: 85%
- plant injury at 16 g/ha [4, 17]: 98%
- plant injury at 31 g/ha [4, 17]: 100%
- plant injury at 62 g/ha [4, 17]: 100%
- pest or weed control at 8 g/ha ([5]; post-emergence, Postemergence, read-out: Plant response rating (scale 0 to 100), Lambsquarters): 75%
- pest or weed control at 16 g/ha [5, 18]: 80%
- pest or weed control at 31 g/ha [5, 18]: 85%
- pest or weed control at 62 g/ha ([5]; post-emergence, Postemergence, scale 0 to 100, 0 no effect, 100 complete control, read-out: Plant response rating, Lambsquarters): 95%
- pest or weed control at 8 g/ha [5, 19]: 100%
- pest or weed control at 16 g/ha [5, 19]: 100%
- pest or weed control at 31 g/ha [5, 19]: 98%
- pest or weed control at 62 g/ha [5, 19]: 100%
- pest or weed control at 8 g/ha ([6]; post-emergence, Postemergence, read-out: Plant response rating (scale 0 to 100), Galium): 80%
- pest or weed control at 16 g/ha [6, 20]: 70%
- pest or weed control at 31 g/ha [6, 20]: 75%
- pest or weed control at 62 g/ha ([6]; post-emergence, Postemergence, scale 0 to 100, 0 no effect, 100 complete control, read-out: Plant response rating, Galium): 85%
- pest or weed control at 8 g/ha [6, 21]: 85%
- pest or weed control at 16 g/ha [6, 21]: 100%
- pest or weed control at 31 g/ha [6, 21]: 100%
- pest or weed control at 62 g/ha [6, 21]: 100%
- pest or weed control at 250 g/ha [7]: 100%
- pest or weed control at 250 g/ha [8]: 100%
- pest or weed control at 250 g/ha [9]: 65%
- plant injury at 250 g/ha (rice (Oryza sativa)): 80%
